Experimental data reported in US8865672B2, “Prevention of tissue ischemia and related methods” (The United States of America, as represented by the …, priority 2006, dated 2014).

System: CD47
Experiment: Western analysis of CD47 in human aortic VSMC
Assay type: cell-based
Details: 48 hours
Experimental: Human aortic VSMC were plated onto 12-well culture plates (Nunc) at a density of 5×10^4 cells/well in SM-GM+2% FCS and cultured until approximately 90% confluent. A translation-blocking antisense morpholino oligonucleotide complementary to human and murine CD47 ([…]; SEQ ID NO: 21) and a five-base mismatch control (CGTgACAGcCAcGACCgACTGCgCA; SEQ ID NO: 22) were obtained from GeneTools (Philomath, Oreg.). Cultured cells were treated as per the manufacturer's recommendation with morpholinos (10 μM) and utilized within 48 hours of treatment.
Murine VSMC were plated in 12-well culture plates (5×10^4 cells/well) (Nunc) in growth medium and weaned over 48 h of additives and serum and then treated in basic medium with 0.1% BSA. Cells were washed twice with PBS and lysed in 1×SDS sample buffer containing 10 μg/mL leupeptin, 10 μg/mL aprotinin, 1 mM Na3VO4, and 40 mM NaF. Lysates prepared in the SDS sample buffer described above were electrophoresed in 4-12% BisTris NuPAGE gels and transferred to PVDF membranes prior to immunoblotting using a mouse monoclonal CD47 antibody, clone B6H12 (Lab Visions, Fremont, Calif.).

In the case of “CGTCACAGGCAGGACCCACTGCCCA (all phosphorodiamidate morpholino (PMO)) [CD47 morpholino]”, the “CD47 protein (Western)” value is reported as “dose dependent decrease in CD47 protein”.
